Measured values as given in PubChem BioAssay AID2060902 (Molecular Pharmacology Branch, DTP, NCI, 2025).

System: 485368-065-R3-J5-PDC spheroids with HUVEC/MSC, viability
Assay: Anticancer human tumor 485368-065-R3-J5-PDC patient-derived pancreatic carcinoma cell line growth inhibition [RAS]
Conditions: for IC50: curve of first compound; for viability, T/C: stronger effect = lower value
Outline: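 Agents were tested in combination matrices in half-log decrements from a top concentration at or near clinical Cmax (10 microM if undetermined). Targets were multi-cell spheroids of tumour lines plus HUVEC and MSC stromal cells.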

[1] = second compound 0.000949 µM, first compound 0.0316 µM
[2] = second compound 0.000949 µM, first compound 0.1 µM
[3] = second compound 0.000949 µM, first compound 0.316 µM
[4] = second compound 0.000949 µM, first compound 1 µM
[5] = second compound 0.000949 µM, first compound 3.16 µM
[6] = second compound 0.000949 µM, first compound 10 µM
[7] = second compound 0.003 µM, first compound 0.0316 µM
[8] = second compound 0.003 µM, first compound 0.1 µM
[9] = second compound 0.003 µM, first compound 0.316 µM
[10] = second compound 0.003 µM, first compound 1 µM
[11] = second compound 0.003 µM, first compound 3.16 µM
[12] = second compound 0.003 µM, first compound 10 µM
[13] = second compound 0.00949 µM, first compound 0.0316 µM
[14] = second compound 0.00949 µM, first compound 0.1 µM
[15] = second compound 0.00949 µM, first compound 0.316 µM
[16] = second compound 0.00949 µM, first compound 1 µM
[17] = second compound 0.00949 µM, first compound 3.16 µM
[18] = second compound 0.00949 µM, first compound 10 µM
[19] = second compound 0.03 µM, first compound 0.0316 µM
[20] = second compound 0.03 µM, first compound 0.1 µM
[21] = second compound 0.03 µM, first compound 0.316 µM
[22] = second compound 0.03 µM, first compound 1 µM
[23] = second compound 0.03 µM, first compound 3.16 µM
[24] = second compound 0.03 µM, first compound 10 µM
[25] = second compound 0.0949 µM, first compound 0.0316 µM
[26] = second compound 0.0949 µM, first compound 0.1 µM
[27] = second compound 0.0949 µM, first compound 0.316 µM
[28] = second compound 0.0949 µM, first compound 1 µM
[29] = second compound 0.0949 µM, first compound 3.16 µM
[30] = second compound 0.0949 µM, first compound 10 µM
[31] = second compound 0.3 µM, first compound 0.0316 µM
[32] = second compound 0.3 µM, first compound 0.1 µM
[33] = second compound 0.3 µM, first compound 0.316 µM
[34] = second compound 0.3 µM, first compound 1 µM
[35] = second compound 0.3 µM, first compound 3.16 µM
[36] = second compound 0.3 µM, first compound 10 µM
[37] = second compound 0.000949 µM, first compound 0.00316 µM
[38] = second compound 0.000949 µM, first compound 0.01 µM
[39] = second compound 0.003 µM, first compound 0.00316 µM
[40] = second compound 0.003 µM, first compound 0.01 µM
[41] = second compound 0.00949 µM, first compound 0.00316 µM
[42] = second compound 0.00949 µM, first compound 0.01 µM
[43] = second compound 0.03 µM, first compound 0.00316 µM
[44] = second compound 0.03 µM, first compound 0.01 µM
[45] = second compound 0.0949 µM, first compound 0.00316 µM
[46] = second compound 0.0949 µM, first compound 0.01 µM
[47] = second compound 0.3 µM, first compound 0.00316 µM
[48] = second compound 0.3 µM, first compound 0.01 µM
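Also: spheroids exposed to agents for seven days before readout.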

`CC(C)NCC(C(=O)N1CCN(c2ncnc3c2C(C)CC3O)CC1)c1ccc(Cl)cc1` (stereo not drawn) + CCn1c(-c2cccnc2C(C)OC)c2c3cc(ccc31)N1CCOC(CC(NC(=O)C(C(C)C)N(C)C(=O)C3(F)CCN(C(=O)C#CC(C)(C)N(C)C)CC3)C(=O)N3CCCC(N3)C(=O)OCC(C)(C)C2)C1 showed an IC50 (second compound 0.000949 µM) of over 10000 nM, an IC50 (second compound 0.003 µM) of over 10000 nM and an IC50 (second compound 0.00949 µM) of over 10000 nM. The IC50 (second compound 0.03 µM) was over 10000 nM, the IC50 (second compound 0.0949 µM) was over 10000 nM and the IC50 (second compound 0.3 µM) was over 10000 nM. It also gave a viability, T/C [1] of 102%, a viability, T/C [2] of 99.4% and a viability, T/C [3] of 95.9%. The viability, T/C [4] was 79.9%, the viability, T/C [5] was 74.6% and the viability, T/C [6] was 55.8%. The viability, T/C [7] was 88.7%, the viability, T/C [8] was 94% and the viability, T/C [9] was 93.8%. It also gave a viability, T/C [10] of 81.7%, a viability, T/C [11] of 81.4% and a viability, T/C [12] of 62.2%. It also gave a viability, T/C [13] of 95.7%, a viability, T/C [14] of 103% and a viability, T/C [15] of 97%. The viability, T/C [16] was 87.6%, the viability, T/C [17] was 76.8% and the viability, T/C [18] was 66.1%. It also gave a viability, T/C [19] of 89.1%, a viability, T/C [20] of 104% and a viability, T/C [21] of 88.4%. It also gave a viability, T/C [22] of 84.7%, a viability, T/C [23] of 70.2% and a viability, T/C [24] of 58.6%. The viability, T/C [25] was 99.9%, the viability, T/C [26] was 104% and the viability, T/C [27] was 89.5%. It also gave a viability, T/C [28] of 80.7%, a viability, T/C [29] of 69.8% and a viability, T/C [30] of 56.2%. The viability, T/C [31] was 98.7%, the viability, T/C [32] was 101% and the viability, T/C [33] was 90.7%. It also gave a viability, T/C [34] of 78.8%, a viability, T/C [35] of 70.3% and a viability, T/C [36] of 49.7%.
`CC(C)n1nc(-c2ccc3oc(N)nc3c2)c2c(N)ncnc21` + CCn1c(-c2cccnc2C(C)OC)c2c3cc(ccc31)N1CCOC(CC(NC(=O)C(C(C)C)N(C)C(=O)C3(F)CCN(C(=O)C#CC(C)(C)N(C)C)CC3)C(=O)N3CCCC(N3)C(=O)OCC(C)(C)C2)C1 showed an IC50 (second compound 0.000949 µM) of 21.7 nM, an IC50 (second compound 0.003 µM) of 19.1 nM and an IC50 (second compound 0.00949 µM) of 19.9 nM. For the same molecule, the IC50 (second compound 0.03 µM) was 21.7 nM, the IC50 (second compound 0.0949 µM) was 21.2 nM and the IC50 (second compound 0.3 µM) was 25.6 nM. For the same molecule, the viability, T/C (second compound 0.000949 µM, first compound 0.000316 µM) was 93.8%, the viability, T/C (second compound 0.000949 µM, first compound 0.001 µM) was 107% and the viability, T/C [37] was 84.2%. The viability, T/C [38] was 73.4%, the viability, T/C [1] was 38.8% and the viability, T/C [2] was 21.2%. It also gave a viability, T/C (second compound 0.003 µM, first compound 0.000316 µM) of 97.6%, a viability, T/C (second compound 0.003 µM, first compound 0.001 µM) of 97.3% and a viability, T/C [39] of 85.6%. It also gave a viability, T/C [40] of 66.8%, a viability, T/C [7] of 37.2% and a viability, T/C [8] of 19.4%. The viability, T/C (second compound 0.00949 µM, first compound 0.000316 µM) was 88.2%, the viability, T/C (second compound 0.00949 µM, first compound 0.001 µM) was 115% and the viability, T/C [41] was 85.9%. For the same molecule, the viability, T/C [42] was 66.6%, the viability, T/C [13] was 40.2% and the viability, T/C [14] was 19.4%. For the same molecule, the viability, T/C (second compound 0.03 µM, first compound 0.000316 µM) was 92%, the viability, T/C (second compound 0.03 µM, first compound 0.001 µM) was 96.3% and the viability, T/C [43] was 96.2%. The viability, T/C [44] was 78.1%, the viability, T/C [19] was 36.4% and the viability, T/C [20] was 22.1%. It also gave a viability, T/C (second compound 0.0949 µM, first compound 0.000316 µM) of 89.3%, a viability, T/C (second compound 0.0949 µM, first compound 0.001 µM) of 98.2% and a viability, T/C [45] of 96.6%. It also gave a viability, T/C [46] of 69.1%, a viability, T/C [25] of 40.3% and a viability, T/C [26] of 19.5%. It also gave a viability, T/C (second compound 0.3 µM, first compound 0.000316 µM) of 97.3%, a viability, T/C (second compound 0.3 µM, first compound 0.001 µM) of 99.4% and a viability, T/C [47] of 86.9%. For the same molecule, the viability, T/C [48] was 75%, the viability, T/C [31] was 43.9% and the viability, T/C [32] was 22.4%.
`CC(Nc1ccc2c(c1)OCCn1cc(N3C(=O)OCC3C(F)F)nc1-2)C(N)=O` (stereo not drawn) + CCn1c(-c2cccnc2C(C)OC)c2c3cc(ccc31)N1CCOC(CC(NC(=O)C(C(C)C)N(C)C(=O)C3(F)CCN(C(=O)C#CC(C)(C)N(C)C)CC3)C(=O)N3CCCC(N3)C(=O)OCC(C)(C)C2)C1 showed an IC50 (second compound 0.000949 µM) of over 10000 nM, an IC50 (second compound 0.003 µM) of over 10000 nM and an IC50 (second compound 0.00949 µM) of over 10000 nM. For the same molecule, the IC50 (second compound 0.03 µM) was over 10000 nM, the IC50 (second compound 0.0949 µM) was over 10000 nM and the IC50 (second compound 0.3 µM) was over 10000 nM. For the same molecule, the viability, T/C [1] was 106%, the viability, T/C [2] was 93.9% and the viability, T/C [3] was 94.2%. It also gave a viability, T/C [4] of 72.2%, a viability, T/C [5] of 70.4% and a viability, T/C [6] of 65.8%. The viability, T/C [7] was 90.8%, the viability, T/C [8] was 93% and the viability, T/C [9] was 93.7%. The viability, T/C [10] was 86.2%, the viability, T/C [11] was 98.9% and the viability, T/C [12] was 56.8%. The viability, T/C [13] was 94.4%, the viability, T/C [14] was 101% and the viability, T/C [15] was 84.9%. The viability, T/C [16] was 96%, the viability, T/C [17] was 85.9% and the viability, T/C [18] was 55.7%. It also gave a viability, T/C [19] of 96.6%, a viability, T/C [20] of 91% and a viability, T/C [21] of 99%. For the same molecule, the viability, T/C [22] was 82.5%, the viability, T/C [23] was 95.5% and the viability, T/C [24] was 65%. The viability, T/C [25] was 103%, the viability, T/C [26] was 94.1% and the viability, T/C [27] was 78.6%. It also gave a viability, T/C [28] of 93.7%, a viability, T/C [29] of 77.9% and a viability, T/C [30] of 62.1%. The viability, T/C [31] was 100%, the viability, T/C [32] was 101% and the viability, T/C [33] was 86.6%. The viability, T/C [34] was 83.7%, the viability, T/C [35] was 84% and the viability, T/C [36] was 71.8%.
`O=C(c1ccc(F)c(F)c1Nc1ccc(I)cc1F)N1CC(O)([C@@H]2CCCCN2)C1` + CCn1c(-c2cccnc2C(C)OC)c2c3cc(ccc31)N1CCOC(CC(NC(=O)C(C(C)C)N(C)C(=O)C3(F)CCN(C(=O)C#CC(C)(C)N(C)C)CC3)C(=O)N3CCCC(N3)C(=O)OCC(C)(C)C2)C1 was tested, and the IC50 (second compound 0.000949 µM) was 58.6 nM, the IC50 (second compound 0.003 µM) was 66.5 nM and the IC50 (second compound 0.00949 µM) was 59.5 nM. For the same molecule, the IC50 (second compound 0.03 µM) was 54.5 nM, the IC50 (second compound 0.0949 µM) was 65.5 nM and the IC50 (second compound 0.3 µM) was 40.4 nM. The viability, T/C [37] was 101%, the viability, T/C [38] was 78.4% and the viability, T/C [1] was 64.1%. The viability, T/C [2] was 37.7%, the viability, T/C [3] was 26.4% and the viability, T/C [4] was 11.7%. The viability, T/C [39] was 97.3%, the viability, T/C [40] was 88.4% and the viability, T/C [7] was 60.1%. It also gave a viability, T/C [8] of 40.7%, a viability, T/C [9] of 31.5% and a viability, T/C [10] of 13.9%. The viability, T/C [41] was 87%, the viability, T/C [42] was 73.6% and the viability, T/C [13] was 60.9%. For the same molecule, the viability, T/C [14] was 39.4%, the viability, T/C [15] was 30.1% and the viability, T/C [16] was 14%. The viability, T/C [43] was 89.6%, the viability, T/C [44] was 76.8% and the viability, T/C [19] was 62.5%. The viability, T/C [20] was 36.8%, the viability, T/C [21] was 24% and the viability, T/C [22] was 15%. For the same molecule, the viability, T/C [45] was 88.3%, the viability, T/C [46] was 75.3% and the viability, T/C [25] was 64%. For the same molecule, the viability, T/C [26] was 39.8%, the viability, T/C [27] was 28.5% and the viability, T/C [28] was 10%. It also gave a viability, T/C [47] of 91.4%, a viability, T/C [48] of 74.7% and a viability, T/C [31] of 51.1%. The viability, T/C [32] was 36.3%, the viability, T/C [33] was 23.5% and the viability, T/C [34] was 8.18%.
